Measurements: ChEMBL document CHEMBL1909046, “DrugMatrix in vitro pharmacology data”

Key:
[1] = target: C-C chemokine receptor type 2 (Homo sapiens, UniProt P41597); format: cell membranes, CHO-K1, Membrane; further: in other assays of this panel Not Active means under 50% inhibition at 10 µM
[2] = target: Beta-2 adrenergic receptor (Homo sapiens, UniProt P07550); assay: DRUGMATRIX: Adrenergic beta2 radioligand binding (ligand: [3H] CGP-12177); format: cell membranes, Membrane; details: cho; Not Active = under 50% inhibition at 10 µM
[3] = target: T1, Thromboxane-A synthase (Homo sapiens, UniProt P24557); assay: biochemical; format: tissue-based, Platelet;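 further: enzyme inhibition assay with PGH2 supplied as substrate; in other assays of this panel Not Active means under 50% inhibition at 10 µM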
T1 sequence (P24557 whole entry): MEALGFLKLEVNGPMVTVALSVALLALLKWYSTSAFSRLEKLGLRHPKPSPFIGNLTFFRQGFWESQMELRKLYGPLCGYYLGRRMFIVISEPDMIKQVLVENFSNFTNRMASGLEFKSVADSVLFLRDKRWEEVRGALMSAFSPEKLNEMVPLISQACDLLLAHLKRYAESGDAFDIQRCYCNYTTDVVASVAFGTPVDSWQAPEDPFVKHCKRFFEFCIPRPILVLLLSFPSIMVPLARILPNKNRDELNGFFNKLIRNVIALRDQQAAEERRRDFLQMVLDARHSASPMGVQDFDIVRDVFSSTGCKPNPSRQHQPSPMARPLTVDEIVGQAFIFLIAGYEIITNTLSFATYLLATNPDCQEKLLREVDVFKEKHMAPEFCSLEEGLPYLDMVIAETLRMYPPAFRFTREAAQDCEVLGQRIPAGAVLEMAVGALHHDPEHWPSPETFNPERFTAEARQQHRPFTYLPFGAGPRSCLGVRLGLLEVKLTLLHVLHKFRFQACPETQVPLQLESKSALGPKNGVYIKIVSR

[4] = target: T2, C-X-C chemokine receptor type 2 (Homo sapiens, UniProt P25025); format: cell membranes, Membrane; details: cho-k1; further: in other assays of this panel Not Active means under 50% inhibition at 10 µM
T2 sequence (P25025 whole entry): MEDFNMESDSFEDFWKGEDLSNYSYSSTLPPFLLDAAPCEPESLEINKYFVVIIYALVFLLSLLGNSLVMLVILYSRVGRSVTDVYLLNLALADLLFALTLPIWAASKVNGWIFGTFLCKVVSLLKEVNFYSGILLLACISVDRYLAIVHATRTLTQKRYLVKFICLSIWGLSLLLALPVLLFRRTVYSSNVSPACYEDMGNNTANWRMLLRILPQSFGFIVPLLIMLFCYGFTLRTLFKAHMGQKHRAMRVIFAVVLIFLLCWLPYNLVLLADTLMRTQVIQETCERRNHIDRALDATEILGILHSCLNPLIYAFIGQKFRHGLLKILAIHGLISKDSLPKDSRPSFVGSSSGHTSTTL

[5] = target: Kappa-type opioid receptor (Homo sapiens, UniProt P41145); assay: DRUGMATRIX: Opiate kappa (OP2, KOP) radioligand binding (ligand: [3H] Diprenorphine); format: cell membranes, HEK293, Membrane; details: hek293; Not Active = under 50% inhibition at 10 µM
[6] = target: Platelet-activating factor receptor (Homo sapiens, UniProt P25105); assay: biochemical; format: tissue-based; details: platelet; further: in other assays of this panel Not Active means under 50% inhibition at 10 µM
[7] = target: Carbonic anhydrase 2 (Homo sapiens, UniProt P00918); assay: DRUGMATRIX: Carbonic Anhydrase II enzyme inhibition (substrate: 4-Nitrophenyl acetate (4-NPA)); format: tissue-based, Erythrocyte; details: erythrocyte; Not Active = under 50% inhibition at 10 µM
[8] = target: T3, Cysteinyl leukotriene receptor 1 (Homo sapiens, UniProt Q9Y271); format: cell membranes, CHO-K1, Membrane; details: cho-k1; further: in other assays of this panel Not Active means under 50% inhibition at 10 µM
T3 sequence (Q9Y271 whole entry): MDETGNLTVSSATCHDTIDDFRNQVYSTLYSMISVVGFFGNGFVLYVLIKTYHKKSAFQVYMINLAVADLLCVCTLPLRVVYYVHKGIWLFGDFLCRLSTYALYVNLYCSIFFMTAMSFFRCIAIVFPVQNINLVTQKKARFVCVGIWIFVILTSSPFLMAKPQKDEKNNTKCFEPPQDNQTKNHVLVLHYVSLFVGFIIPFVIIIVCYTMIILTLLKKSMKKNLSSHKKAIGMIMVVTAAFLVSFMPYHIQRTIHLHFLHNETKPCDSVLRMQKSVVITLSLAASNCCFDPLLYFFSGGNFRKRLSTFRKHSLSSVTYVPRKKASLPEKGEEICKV

[9] = DRUGMATRIX: Glutamate, Kainate radioligand binding (ligand: [3H] Kainic acid); format: cell membranes, Rattus norvegicus, Wistar, Brain, Membrane; details: Not Active = under 50% inhibition at 10 µM
[10] = target: Beta-3 adrenergic receptor (Homo sapiens, UniProt P13945); assay: DRUGMATRIX: Adrenergic beta3 radioligand binding (ligand: [125I] Cyanopindolol); format: cell membranes, HEK293, Membrane; details: hek293; Not Active = under 50% inhibition at 10 µM
[11] = target: Glycine receptor (Rattus norvegicus, UniProt P22771+P24524+P07727+P20781); format: cell membranes, Wistar, Spinal cord, Membrane; further: in other assays of this panel Not Active means under 50% inhibition at 10 µM
[12] = target: Tyrosine-protein kinase Lck (Homo sapiens, UniProt P06239); assay: DRUGMATRIX: Protein Tyrosine Kinase, LCK enzyme inhibition (substrate: Poly(Glu:Tyr)); format: cell-based, Insect cells; details: insect cells; Not Active = under 50% inhibition at 10 µM
Chain of Tyrosine-protein kinase Lck (P06239 whole entry): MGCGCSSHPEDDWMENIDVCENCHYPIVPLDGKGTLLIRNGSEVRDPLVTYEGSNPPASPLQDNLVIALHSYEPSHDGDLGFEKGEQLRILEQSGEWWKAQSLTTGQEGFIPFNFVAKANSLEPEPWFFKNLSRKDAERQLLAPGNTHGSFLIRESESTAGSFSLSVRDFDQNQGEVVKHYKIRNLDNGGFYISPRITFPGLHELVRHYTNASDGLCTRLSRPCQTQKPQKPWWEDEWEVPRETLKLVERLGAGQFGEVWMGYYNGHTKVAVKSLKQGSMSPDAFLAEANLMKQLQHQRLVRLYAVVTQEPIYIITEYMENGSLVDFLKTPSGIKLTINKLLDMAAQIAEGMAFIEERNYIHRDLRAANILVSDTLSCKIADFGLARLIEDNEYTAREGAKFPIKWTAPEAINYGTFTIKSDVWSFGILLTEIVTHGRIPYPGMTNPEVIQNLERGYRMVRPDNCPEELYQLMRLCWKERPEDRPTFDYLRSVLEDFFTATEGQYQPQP

Chain of Kappa-type opioid receptor (P41145 whole entry): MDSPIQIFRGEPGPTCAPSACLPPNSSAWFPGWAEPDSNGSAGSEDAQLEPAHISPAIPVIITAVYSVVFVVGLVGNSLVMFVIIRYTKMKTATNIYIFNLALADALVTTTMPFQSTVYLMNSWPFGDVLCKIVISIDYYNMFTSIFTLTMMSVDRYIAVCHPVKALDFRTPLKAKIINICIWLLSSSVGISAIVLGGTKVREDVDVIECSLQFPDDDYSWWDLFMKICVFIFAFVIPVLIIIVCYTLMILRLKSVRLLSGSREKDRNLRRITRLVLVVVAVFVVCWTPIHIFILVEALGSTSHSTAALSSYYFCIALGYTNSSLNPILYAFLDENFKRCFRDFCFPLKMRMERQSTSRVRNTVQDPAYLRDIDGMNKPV
Chain of C-C chemokine receptor type 2 (P41597 whole entry): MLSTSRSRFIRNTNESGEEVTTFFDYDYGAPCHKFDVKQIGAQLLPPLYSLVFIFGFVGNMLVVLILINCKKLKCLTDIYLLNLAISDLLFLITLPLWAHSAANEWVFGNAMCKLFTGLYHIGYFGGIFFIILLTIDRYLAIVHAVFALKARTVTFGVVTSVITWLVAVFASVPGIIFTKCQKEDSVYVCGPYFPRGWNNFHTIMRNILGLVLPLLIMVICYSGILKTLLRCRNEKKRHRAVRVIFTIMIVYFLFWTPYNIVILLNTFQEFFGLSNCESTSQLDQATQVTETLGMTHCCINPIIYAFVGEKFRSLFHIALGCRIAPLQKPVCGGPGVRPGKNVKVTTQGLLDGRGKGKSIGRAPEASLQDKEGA
Chain of Beta-3 adrenergic receptor (P13945 whole entry): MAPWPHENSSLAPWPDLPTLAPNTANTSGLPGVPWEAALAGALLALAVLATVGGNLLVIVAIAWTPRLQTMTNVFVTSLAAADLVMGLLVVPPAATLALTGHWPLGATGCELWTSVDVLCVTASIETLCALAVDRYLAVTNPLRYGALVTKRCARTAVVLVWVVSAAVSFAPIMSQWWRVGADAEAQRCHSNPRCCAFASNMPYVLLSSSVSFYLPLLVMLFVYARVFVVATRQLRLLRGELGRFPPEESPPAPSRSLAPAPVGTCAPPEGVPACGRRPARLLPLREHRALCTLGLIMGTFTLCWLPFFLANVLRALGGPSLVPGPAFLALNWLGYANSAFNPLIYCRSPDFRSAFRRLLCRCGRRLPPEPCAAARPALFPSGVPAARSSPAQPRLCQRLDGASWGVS
Chain of Beta-2 adrenergic receptor (P07550 whole entry): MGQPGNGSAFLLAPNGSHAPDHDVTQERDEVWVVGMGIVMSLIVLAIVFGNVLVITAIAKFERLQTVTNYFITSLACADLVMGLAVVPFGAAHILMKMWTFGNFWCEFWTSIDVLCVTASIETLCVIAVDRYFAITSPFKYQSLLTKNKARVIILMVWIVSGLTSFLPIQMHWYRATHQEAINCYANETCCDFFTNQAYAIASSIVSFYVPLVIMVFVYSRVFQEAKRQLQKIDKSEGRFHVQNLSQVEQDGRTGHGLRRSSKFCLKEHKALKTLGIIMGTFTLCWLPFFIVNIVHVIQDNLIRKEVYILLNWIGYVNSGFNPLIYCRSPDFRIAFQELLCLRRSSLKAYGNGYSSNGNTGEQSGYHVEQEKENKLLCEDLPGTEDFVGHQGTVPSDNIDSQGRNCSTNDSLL
Chain of Platelet-activating factor receptor (P25105 whole entry): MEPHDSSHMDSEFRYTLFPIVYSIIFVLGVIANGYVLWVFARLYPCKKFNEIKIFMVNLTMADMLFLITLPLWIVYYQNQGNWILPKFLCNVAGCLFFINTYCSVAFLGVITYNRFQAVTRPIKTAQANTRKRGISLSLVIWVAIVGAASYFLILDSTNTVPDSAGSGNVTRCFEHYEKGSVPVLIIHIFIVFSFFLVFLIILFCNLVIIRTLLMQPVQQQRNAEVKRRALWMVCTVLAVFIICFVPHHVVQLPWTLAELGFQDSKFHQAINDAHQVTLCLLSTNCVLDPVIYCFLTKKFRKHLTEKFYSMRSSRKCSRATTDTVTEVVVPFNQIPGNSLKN

Row | SMILES | IC50 ([1]; cho-k1) | IC50 [2] | IC50 ([3]; platelet) | IC50 [4] | IC50 [5] | IC50 [6] | IC50 [7] | IC50 [8] | IC50 [9] | Ki [9] | IC50 [10] | IC50 [11] | IC50 [12] | IC50 ([1]; read-out: IC50) [nM] | Ki ([1]; read-out: Ki) [nM] | IC50 ([3]; read-out: IC50) [nM]
1 | CN(N=O)C(=O)N[C@@H](C=O)[C@@H](O)[C@H](O)[C@H](O)CO [STREPTOZOCIN] | Not Active | Not Active | Not Active | Not Active | Not Active | Not Active | Not Active | Not Active | Not Active | Not Active | Not Active | Not Active | Not Active |  |  | 
2 | O=C1c2c(O)ccc(O)c2C(=O)c2c(NCCNCCO)ccc(NCCNCCO)c21 [MITOXANTRONE] | Not Active | Not Active | Not Active | Not Active | Not Active | Not Active | Not Active | Not Active | Not Active | Not Active | Not Active | Not Active | Not Active |  |  | 
3 | CC[C@H]1OC(=O)[C@H](C)[C@@H](O[C@H]2C[C@@](C)(OC)[C@@H](O)[C@H](C)O2)[C@H](C)[C@@H](O[C@@H]2O[C@H](C)C[C@H](N(C)C)[C@H]2O)[C@](C)(O)C[C@@H](C)/C(=N\OCOCCOC)[C@H](C)[C@@H](O)[C@]1(C)O [ROXITHROMYCIN] | Not Active | Not Active | Not Active | Not Active | Not Active | Not Active | Not Active | Not Active | Not Active | Not Active | Not Active | Not Active | Not Active |  |  | 
4 | COC(=O)c1ccc(O)cc1 [METHYLPARABEN] | Not Active | Not Active | Not Active | Not Active | Not Active | Not Active | Not Active | Not Active | Not Active | Not Active | Not Active | Not Active | Not Active |  |  | 
5 | NC(CO)(CO)CO [TROMETHAMINE] | Not Active | Not Active | Not Active | Not Active | Not Active | Not Active | Not Active | Not Active | Not Active | Not Active | Not Active | Not Active | Not Active |  |  | 
6 | CCOC(=O)[C@H](CCc1ccccc1)N[C@@H](C)C(=O)N1[C@H](C(=O)O)C[C@@H]2CCC[C@@H]21 | Not Active | Not Active | Not Active | Not Active | Not Active | Not Active | Not Active | Not Active | Not Active | Not Active | Not Active | Not Active | Not Active |  |  | 
7 | COc1cc(C(=O)NC2CCCNC2)cc(OC)c1OC (stereo not given) [TROXIPIDE] | Not Active | Not Active | Not Active | Not Active | Not Active | Not Active | Not Active | Not Active | Not Active | Not Active | Not Active | Not Active | Not Active |  |  | 
8 | CCC[C@@H]1C[C@@H](C(=O)N[C@@H]([C@H]2O[C@H](SC)[C@H](O)[C@@H](O)[C@H]2O)[C@@H](C)O)N(C)C1 [LINCOMYCIN] | Not Active | Not Active | Not Active | Not Active | Not Active | Not Active | Not Active | Not Active | Not Active | Not Active | Not Active | Not Active | Not Active |  |  | 
9 | NNC(=O)c1ccncc1 [ISONIAZID] | Not Active | Not Active | Not Active | Not Active | Not Active | Not Active | Not Active | Not Active | Not Active | Not Active | Not Active | Not Active | Not Active |  |  | 
10 | COC(=O)C1=C(C)NC(C)=C(C(=O)OC)C1c1ccccc1[N+](=O)[O-] [NIFEDIPINE] |  | Not Active |  | Not Active | Not Active | Not Active | Not Active | Not Active | Not Active | Not Active | Not Active | Not Active | Not Active | 2190 | 847 | 18600
11 | Cc1ncc([N+](=O)[O-])n1CC(C)O (stereo not given) [SECNIDAZOLE] | Not Active | Not Active | Not Active | Not Active | Not Active | Not Active | Not Active | Not Active | Not Active | Not Active | Not Active | Not Active | Not Active |  |  | 
12 | COS(C)(=O)=O [METHANESULFONIC ACID METHYL ESTER] | Not Active | Not Active | Not Active | Not Active | Not Active | Not Active | Not Active | Not Active | Not Active | Not Active | Not Active | Not Active | Not Active |  |  | 
13 | Cc1ccc(C(=O)C(C)CN2CCCCC2)cc1 (stereo not given) [TOLPERISONE] | Not Active | Not Active | Not Active | Not Active | Not Active | Not Active | Not Active | Not Active | Not Active | Not Active | Not Active | Not Active | Not Active |  |  | 
